Data published in publication PMC10460054, “Multiplex Quantitative Analysis of 9 Compounds of Scutellaria baicalensis Georgi in the Plasma of Respiratory Syncytial Virus-Infected Mice Based on HPLC-MS/MS and Pharmacodynamic Effect Correlation Analysis” (Molecules, 2023).

Assays:
[1] = HPLC-MS/MS quantification of 9 compounds in plasma of RSV-infected mice after Scutellaria baicalensis Georgi administration; assay type: in vivo, BALB/c mice; design: drug-containing plasma content: unit not given here
Protocol: The study employed a Vanquish high-performance liquid chromatograph for chromatographic separation, with a HALO C18 column (2.1 × 100 mm, 2.7 μm) as the chromatographic column.
Mass spectrometry was performed using a quadrupole-electrostatic field orbitrap desktop mass spectrometer equipped with an electrospray ion source (ESI). The ESI parameters were set as follows: the pyrolysis voltage was 3.0 kV, the auxiliary gas flow rate was 10 mL/min, the ion transport tube temperature was 350 °C, the auxiliary gas temperature was 350 °C, and the sheath gas flow rate was 45 L/min. Quantitative analysis was performed using the selective ion detection (SIM) mode (Table S1).
Male BALB/c mice, aged 2 weeks and weighing 10–12 g, were chosen for this study. They were acclimatized for 2 days and then randomly assigned to one of five groups: blank (C), model (M), positive control ribavirin (Y1), positive control lianhua qingwen granules (Y2), and Scutellaria baicalensis Georgi administration (H1-H12). Each group consisted of six mice, and their weights were recorded. The mice were pre-administered for 2 days, and on the third day, RSV virus (TCID50 = 10^−6) was inoculated through intranasal infection at a volume of 35 μL per mouse. The blank group was inoculated with normal saline of the same volume. After the inoculation of the RSV virus, the blank and model groups were given distilled water by gavage, while the drug-administered groups were given an aqueous extract of Scutellaria baicalensis Georgi (10 µL/g) once a day for 3 days. The mice were observed daily for their mental status, hair color, diet, and body weight. […] It was then centrifuged at 3000 r/min for 10 min, and the upper layer of plasma was stored at −80℃. Lung tissues were weighed, the lung index was calculated, and the lung tissues were stored in the refrigerator at −80 °C for freezing.
The plasma sample (200 μL) was processed in a 5 mL tube. Subsequently, 10 μL of 5% formic acid and 20 μL of 2 mol/L hydrochloric acid were added, followed by vortexing for 1 min with 10 μL of internal standard solution (100 ng/mL tinidazole). The extraction was completed by adding 2000 μL of acetonitrile solvent and vortexing for 2 min. The mixture was then centrifuged at 12,000 r/min at 4 °C for 10 min, and the supernatant solution was collected in a new centrifuge tube. The supernatant solution was dried by nitrogen at room temperature before being redissolved in 50 μL of 70% acetonitrile solution containing 0.1% formic acid. After vortexing for 1 min, the solution was centrifuged at 12,000 r/min at 4 °C for 10 min, and the resulting supernatant was injected for analysis. The injection volume was 3 μL.
The drug-containing plasma at different time points was subjected to sample treatment. The HPLC-MS/MS analysis method was used to quantitatively detect the 9 compounds in the ion detection (SIM) mode. According to the relative peak area value = index peak area/internal standard peak area, the corresponding concentration value was calculated by substituting the standard curve of each component.

[2] = Stability of 9 compounds in mouse plasma under storage conditions; assay type: in vitro ADME; conditions: n = 6; for Stability 3-Freeze-Thaw Cycles RE: 3 times repeated freeze-thaw at −80 °C; for Stability Short-Term RE: 12 h at 4 °C; for Stability Long-Term RE: −20 °C for 20 days
[3] = RSV-infected mice after Scutellaria baicalensis Georgi administration, double peak phenomenon
[4] = RSV-infected mice, 0.083 h after last gavage of Scutellaria baicalensis Georgi extract, mean ± SD, n = 6
[5] = RSV-infected mice, 0.167 h after last gavage of Scutellaria baicalensis Georgi extract, mean ± SD, n = 6
[6] = RSV-infected mice, 0.25 h after last gavage of Scutellaria baicalensis Georgi extract, mean ± SD, n = 6
[7] = RSV-infected mice, 0.5 h after last gavage of Scutellaria baicalensis Georgi extract, mean ± SD, n = 6
[8] = RSV-infected mice, 1 h after last gavage of Scutellaria baicalensis Georgi extract, mean ± SD, n = 6
[9] = RSV-infected mice, 2 h after last gavage of Scutellaria baicalensis Georgi extract, mean ± SD, n = 6
[10] = RSV-infected mice, 4 h after last gavage of Scutellaria baicalensis Georgi extract, mean ± SD, n = 6
[11] = RSV-infected mice, 6 h after last gavage of Scutellaria baicalensis Georgi extract, mean ± SD, n = 6
[12] = RSV-infected mice, 8 h after last gavage of Scutellaria baicalensis Georgi extract, mean ± SD, n = 6
[13] = RSV-infected mice, 10 h after last gavage of Scutellaria baicalensis Georgi extract, mean ± SD, n = 6
[14] = RSV-infected mice, 12 h after last gavage of Scutellaria baicalensis Georgi extract, mean ± SD, n = 6
[15] = RSV-infected mice, 24 h after last gavage of Scutellaria baicalensis Georgi extract, mean ± SD, n = 6
[16] = high QC (20,000 or 10,000 ng/mL)
[17] = male, BALB/c, mouse, in vivo, 0.083 h
[18] = male, BALB/c, mouse, in vivo, 0.167 h
[19] = male, BALB/c, mouse, in vivo, 0.25 h
[20] = male, BALB/c, mouse, in vivo, 0.5 h
[21] = male, BALB/c, mouse, in vivo, 1 h
[22] = male, BALB/c, mouse, in vivo, 2 h
[23] = male, BALB/c, mouse, in vivo, 4 h
[24] = male, BALB/c, mouse, in vivo, 6 h
[25] = male, BALB/c, mouse, in vivo, 8 h
[26] = male, BALB/c, mouse, in vivo, 10 h
[27] = male, BALB/c, mouse, in vivo, 12 h
[28] = male, BALB/c, mouse, in vivo, 24 h

| SMILES | time of highest plasma concentration, first peak [1, 3] | time of highest plasma concentration, second peak [1, 3] | drug-containing plasma content [1, 4] | drug-containing plasma content [1, 5] | drug-containing plasma content [1, 6] | drug-containing plasma content [1, 7] | drug-containing plasma content [1, 8] | drug-containing plasma content [1, 9] | drug-containing plasma content [1, 10] | drug-containing plasma content [1, 11] | drug-containing plasma content [1, 12] | Stability 3-Freeze-Thaw Cycles RE [2, 16] | Stability 3-Freeze-Thaw Cycles RE ([2]; low QC (12.5 or 25.6 ng/mL)) | Stability 3-Freeze-Thaw Cycles RE ([2]; medium QC (320 or 160 ng/mL)) | Stability Short-Term RE [2, 16] | Stability Short-Term RE ([2]; low QC (12.5 or 25.6 ng/mL)) | Stability Short-Term RE ([2]; medium QC (320 or 160 ng/mL)) | Stability Long-Term RE [2, 16] | Stability Long-Term RE ([2]; low QC (12.5 or 25.6 ng/mL)) | Stability Long-Term RE ([2]; medium QC (320 or 160 ng/mL)) | other results |
| --- | --- | --- | --- | --- | --- | --- | --- | --- | --- | --- | --- | --- | --- | --- | --- | --- | --- | --- | --- | --- | --- |
| COc1c(O)cc2oc(-c3ccccc3)cc(=O)c2c1O [Oroxylin A] | 0.167 h | 6 h | 13.47± 9.43 | 745.77± 35.54 | 63.52± 1.32 | 40.44± 4.81 | 160.88± 15.86 | 75.84± 5.43 | 486.23± 8.65 | 1063.52± 101.32 | 300.68± 17.25 | −5.29% | −4.26% | −8.41% | −4.07% | −3.30% | −5.14% | −7.03% | −6.71% | −5.78% | drug-containing plasma content [1, 13]: 19.18± 2.56; drug-containing plasma content [1, 14]: 13.60± 7.94; drug-containing plasma content [1, 15]: 0 |
| O=C(O)[C@H]1O[C@@H](Oc2cc3oc(-c4ccccc4)cc(=O)c3c(O)c2O)[C@H](O)[C@@H](O)[C@@H]1O [Baicalin] | 0.167 h | 6 h |  |  |  |  |  |  |  |  |  | 7.69% | −7.38% | −2.37% | 5.73% | −9.16% | −5.85% | 5.87% | −8.15% | −5.21% | drug-containing plasma content [1, 17]: 2434.28± 151.56; drug-containing plasma content [1, 18]: 4607.45± 318.09; drug-containing plasma content [1, 19]: 2031.56± 103.57; drug-containing plasma content [1, 20]: 2696.64± 110.33; drug-containing plasma content [1, 21]: 2474.37± 225.92; drug-containing plasma content [1, 22]: 2620.76± 117.82; drug-containing plasma content [1, 23]: 1587.10± 169.68; drug-containing plasma content [1, 24]: 8607.45± 428.09; drug-containing plasma content [1, 25]: 1856.98± 113.03; drug-containing plasma content [1, 26]: 569.32± 20.22; drug-containing plasma content [1, 27]: 39.89± 7.45; drug-containing plasma content [1, 28]: 15.44± 5.62 |

The next lines start with results.

| time of highest plasma concentration, first peak [1, 3] | time of highest plasma concentration, second peak [1, 3] | drug-containing plasma content [1, 4] | drug-containing plasma content [1, 5] | drug-containing plasma content [1, 6] | drug-containing plasma content [1, 7] | drug-containing plasma content [1, 8] | drug-containing plasma content [1, 9] | drug-containing plasma content [1, 10] | drug-containing plasma content [1, 11] | drug-containing plasma content [1, 12] | Stability 3-Freeze-Thaw Cycles RE [2, 16] | Stability 3-Freeze-Thaw Cycles RE ([2]; low QC (12.5 or 25.6 ng/mL)) | Stability 3-Freeze-Thaw Cycles RE ([2]; medium QC (320 or 160 ng/mL)) | Stability Short-Term RE [2, 16] | Stability Short-Term RE ([2]; low QC (12.5 or 25.6 ng/mL)) | Stability Short-Term RE ([2]; medium QC (320 or 160 ng/mL)) | Stability Long-Term RE [2, 16] | Stability Long-Term RE ([2]; low QC (12.5 or 25.6 ng/mL)) | Stability Long-Term RE ([2]; medium QC (320 or 160 ng/mL)) | SMILES | other results |
| --- | --- | --- | --- | --- | --- | --- | --- | --- | --- | --- | --- | --- | --- | --- | --- | --- | --- | --- | --- | --- | --- |
| 0.167 h | 6 h | 28.17± 2.96 | 94.18± 5.68 | 23.48± 0.05 | 13.88± 4.73 | 12.42± 7.14 | 0 | 14.29± 9.94 | 113.88± 4.73 | 21.94± 0.43 | 1.97% | −6.11% | 7.06% | −1.39% | −2.17% | 0.74% | 0.11% | −8.96% | 3.74% | O=c1cc(-c2ccccc2)oc2c(O)c(O)cc(O)c12 [Norwogonin] | drug-containing plasma content [1, 13]: 16.07± 3.80; drug-containing plasma content [1, 14]: 0; drug-containing plasma content [1, 15]: 0 |
|  |  |  |  |  |  |  |  |  |  |  | 8.37% | −2.43% | −0.72% | 8.60% | −3.20% | −2.08% | 9.80% | −3.16% | −1.48% | O=C(O)[C@H]1O[C@@H](Oc2cc(O)c3c(=O)cc(-c4ccc(O)cc4)oc3c2)[C@H](O)[C@@H](O)[C@@H]1O [Apigenin-7-glucuronide] | time of highest plasma concentration, first peak ([1]; male, BALB/c, mouse, in vivo): 0.167 h; time of highest plasma concentration, second peak ([1]; male, BALB/c, mouse, in vivo): 6 h; drug-containing plasma content [1, 17]: 4725.60± 214.70; drug-containing plasma content [1, 18]: 6986.86± 153.57; drug-containing plasma content [1, 19]: 4610.60± 192.08; drug-containing plasma content [1, 20]: 4344.98± 173.73; drug-containing plasma content [1, 21]: 1590.11± 125.69; drug-containing plasma content [1, 22]: 2934.42± 221.23; drug-containing plasma content [1, 23]: 1037.07± 106.48; drug-containing plasma content [1, 24]: 9344.98± 327.73; drug-containing plasma content [1, 25]: 2958.20± 207.61; drug-containing plasma content [1, 26]: 896.04± 55.63; drug-containing plasma content [1, 27]: 47.32± 11.82; drug-containing plasma content [1, 28]: 23.55± 2.60 |
| 0.167 h | 6 h | 553.37± 9.22 | 1829.58± 102.08 | 928.49± 33.77 | 776.20± 41.04 | 1078.05± 63.01 | 1333.51± 38.28 | 1372.78± 53.34 | 3829.58± 182.08 | 1825.89± 177.13 | 1.79% | −8.61% | 0.60% | 3.40% | −3.08% | −1.39% | 3.40% | −2.30% | −2.01% | COc1c(O[C@@H]2O[C@H](C(=O)O)[C@@H](O)[C@H](O)[C@H]2O)cc(O)c2c(=O)cc(-c3ccccc3)oc12 [Wogonoside] | drug-containing plasma content [1, 13]: 318.50± 23.92; drug-containing plasma content [1, 14]: 188.85± 19.38; drug-containing plasma content [1, 15]: 0 |
| 0.167 h | 6 h |  |  |  |  |  |  |  |  |  |  |  |  |  |  |  |  |  |  | O=c1cc(-c2ccccc2)oc2cc(O)c(O)c(O)c12 [Baicalein] | drug-containing plasma content [1, 17]: 235.76± 21.97; drug-containing plasma content [1, 18]: 573.93± 23.68; drug-containing plasma content [1, 19]: 437.59± 15.17; drug-containing plasma content [1, 20]: 243.84± 16.32; drug-containing plasma content [1, 21]: 208.98± 14.58; drug-containing plasma content [1, 22]: 25.73± 5.59; drug-containing plasma content [1, 23]: 43.00± 8.66; drug-containing plasma content [1, 24]: 792.15± 41.3; drug-containing plasma content [1, 25]: 184.80± 29.24; drug-containing plasma content [1, 26]: 120.93± 15.03; drug-containing plasma content [1, 27]: 9.28± 5.01; drug-containing plasma content [1, 28]: 1.42± 5.86 |
